Measurements published in ChEMBL document CHEMBL1157092, “Jacaranone-derived glucosidic esters from Jacaranda glabra and their activity against Plasmodium falciparum” (J Nat Prod, 2010).
≈ marks a conversion by molar mass, not a printed value.

Assays:
L6 = test: Cytotoxicity against rat L6 cells after 72 hrs by alamar blue assay; assay type: cell-based; conditions: L6, 72 h
Plasmodium falciparum = test: Antiplasmodial activity against chloroquine and pyrimethamine-resistant Plasmodium falciparum K1 infected in human erythrocytes after 48 hrs by [3]H-hypoxanthine incorporation assay; assay type: functional, organism-based; conditions: K1, 48 h

| Structure (SMILES) | IC50 (L6) [µg/mL] | IC50 (Plasmodium falciparum) [µg/mL] |
| --- | --- | --- |
| COC(=O)CC1(O)C=CC(=O)C=C1 [JACARANONE] | 1.06 (≈ 5.82 µM) | 1.32 (≈ 7.25 µM) |
| O=C(O)Cc1ccccc1 [PHENYLACETIC ACID] | > 90 | > 5 |
| O=C1C=CC(O)(CC(=O)OC[C@H]2O[C@@H](OC(=O)CC3(O)C=CC(=O)C=C3)[C@H](OC(=O)Cc3ccc(O)cc3)[C@@H](OC(=O)Cc3ccccc3)[C@@H]2O)C=C1 [JACAGLABROSIDE C] | 87 (≈ 119 µM) | 0.56 (≈ 0.764 µM) |
| O=C1C=CC(O)(CC(=O)OC[C@H]2O[C@@H](OC(=O)CC3(O)C=CC(=O)C=C3)[C@H](OC(=O)Cc3ccccc3)[C@@H](O)[C@@H]2O)C=C1 [JACAGLABROSIDE B] | > 90 | 0.56 (≈ 0.936 µM) |
| O=C1C=CC(O)(CC(=O)OC[C@H]2O[C@@H](OC(=O)CC3(O)C=CC(=O)C=C3)[C@H](OC(=O)Cc3ccccc3)[C@@H](OC(=O)Cc3ccc(O)cc3)[C@@H]2O)C=C1 [JACAGLABROSIDE D] | 84.8 (≈ 116 µM) | 0.55 (≈ 0.751 µM) |
| O=C1C=CC(O)(CC(=O)OC[C@H]2O[C@@H](OC(=O)CC3(O)C=CC(=O)C=C3)[C@H](OC(=O)Cc3ccccc3)[C@@H](OC(=O)Cc3ccccc3)[C@@H]2O)C=C1 [JACAGLABROSIDE A] | 8.3 (≈ 11.6 µM) | 1.02 (≈ 1.42 µM) |
